Assay results reported in patent publication US20240010961A1 (priority 2020, published 2024).
Like-named read-outs stand apart in the source and are kept apart here.

Legend:
hepatocytes = test: MOI validation: hepatocyte drug metabolism quantified in culture medium by liquid chromatography mass spectrometry; assay type: in vitro ADME; conditions: hepatocytes in well insert, medium sampled 0.5-72 h
Protocol: The MOI can be validated for all drugs of interest prior to applying it to sarcoma organoids. In one embodiment, the validation process includes printing 1,000-20,000 hepatocytes in the well insert and incubating in medium for 72 hours. In some embodiments, between about 5,000 and about 10,000 hepatocytes are provided in the well insert. At the 0.5, 1, 2, 4, 8, 12, 24, 48 and 72 h time-points, culture medium is collected from the well. Liquid chromatography mass spectrometry can be used to quantify the parent compound, its metabolites, and their concentrations. The goal is to identify conditions that recreate in vivo drug metabolism. […] To optimize these parameters, the size, shape, and cell density of the well insert can be changed if necessary. Hepatocyte viability and proliferation can be assessed for each time-point by Calcein AM and propidium iodide staining as well as an ATP assay. Optimal hepatocyte conditions and incubation periods for each drug can then be used in subsequent experiments.

EW-7 (Ewing's sarcoma) = conditions: EW-7 in mice; cited from earlier work
SAOS-LM7 (osteosarcoma) = conditions: cited from earlier work

From the text for tumor cells: Using the MOI device, tumor cells were co-cultured without, FIG. 12A, and with, FIG. 12B, liver organoid suspended on the MOI device.

| Compound | tumor cell viability (tumor cells; control, without liver organoid on the MOI device (FIG. 12A), logarithmically increasing concentration) | tumor cell viability (tumor cells; with MOI-device-supported liver organoid (FIG. 12B), higher CP concentrations) | fraction converted into chloro-acetaldehyde (hepatocytes) | sensitivity of cell line in mice (EW-7 (Ewing's sarcoma)) | sensitivity of cell line in mice (SAOS-LM7 (osteosarcoma)) |
| --- | --- | --- | --- | --- | --- |
| O=P1(N(CCCl)CCCl)NCCCO1 (centres unmarked) [cyclophosphamide] | not significantly diminished | decreased |  |  |  |
| O=P1(NCCCl)OCCCN1CCCl (centres unmarked) [ifosfamide] |  |  | 25-50% | sensitive | sensitive |
